Assay results from patent US11096947B2, “Combination products with tyrosine kinase inhibitors and their use” (Novartis AG, priority 2012, dated 2021).

Columns and labels:
HCC827 cells = test: Proliferation assay (resazurin / AlamarBlue readout) in HCC827 cells; assay type: cell-based; conditions: single agent, up to 1 μM
Method: A DMSO-only control was included. […] Recombinant human HGF (PeproTech, catalogue number 100-39) was added together with compounds at a constant concentration as indicated in the respective experiments. Cells were incubated for 72 to 96 h and the amount of viable cells was then assessed using a resazurin sodium salt dye reduction readout (commercially known as AlamarBlue® assay, Invitrogen, Life Technologies Corporation, Grand Island, N.Y., USA). Values were normalized and plotted as either “% of control” with the DMSO control set to 100%, or as “fold seeded cells”. In this case a resazurin readout of separate wells with untreated cells was obtained 24 h after seeding in order to determine a “seeded cells” value for normalization. Plotting of the data and curve-fitting were done with GraphPad Prism version 5.00 for Windows (GraphPad Software, Inc., La Jolla, Calif., USA).

HCC827 GR cells = test: Proliferation assay (resazurin / AlamarBlue readout) in gefitinib-resistant HCC827 GR cells; assay type: cell-based; conditions: monotherapy
Method: 24 h later, a 10-point dilution series of each compound was prepared in DMSO. […] A DMSO-only control was included. […] Recombinant human HGF (PeproTech, catalogue number 100-39) was added together with compounds at a constant concentration as indicated in the respective experiments. Cells were incubated for 72 to 96 h and the amount of viable cells was then assessed using a resazurin sodium salt dye reduction readout (commercially known as AlamarBlue® assay, Invitrogen, Life Technologies Corporation, Grand Island, N.Y., USA). Values were normalized and plotted as either “% of control” with the DMSO control set to 100%, or as “fold seeded cells”. In this case a resazurin readout of separate wells with untreated cells was obtained 24 h after seeding in order to determine a “seeded cells” value for normalization.

[1] = system: HCC827GR5 subcutaneous xenografts; test: Efficacy experiments in mice bearing HCC827GR5 subcutaneous xenografts; assay type: in vivo; conditions: for antitumor effect as single agent: Discussion; for antitumor effect as single agent / regressions / Delta tumor volume: MET inhibitor 3 mg/kg, gefitinib 25 mg/kg; for regressions: orally once a day; for regressions / T/C: 13 days; for T/C: gefitinib 25 mg/kg orally once a day
Method: Experiments were performed in female Hsd: Athymic nude-nu CPB mice obtained from Harlan Winkelmann, Germany. Animally were approximately 11 weeks of age at treatment start and housed under Optimized Hygienic Conditions (OHC) in Macrolon type III cages (max. 5 animals per cage) with free access to food and water.
Cell line identity has been confirmed by SNP genotyping. Cells were grown in RPMI 1640 medium (Amimed #1-41F01-1) supplemented with 10% heat inactivated FCS, (Amimed #2-01F16-1), 2 mM L-glutamine (Amimed #5-10K00-H), 1 mM sodium pyruvate (Amimed #5-60F00-H) and 10 mM HEPES (Gibco #15630). […]. Cells were incubated at 37° C. in a humidified atmosphere with 5% CO2.
HCC827GR5 tumors were established by subcutaneous injection of 5×10^6 cells in 115 μl HBSS (Hank's buffered salt solution) containing 50% Matrigel (v/v) (gelatinous protein mixture secreted by Engelbreth-Holm-Swarm (EHS) mouse sarcoma cells, BD Biosciences, Franklin Lakes, N.J., USA) into the right flank of mice, with a 13 gauge trocar needle under Forene® (Isofluran; Abott, Switzerland) anesthesia. In the efficacy experiments, treatments started when the tumors reached an average size of 150 mm^3, 11 days post tumor implantation. In the PK/PD experiment, treatments were started when the mean tumor size was 450 mm^3, 15 days post tumor implantation.
The application volumes were 10 ml/kg for the single agents and for the vehicle control group or 5 ml/kg when the test compounds were given in combination. All indicated doses refer to free base equivalent of 2-Fluoro-N-methyl-4-[(7-quinolin-6-yl-methyl)-imidazo[1,2-b]triazin-2-yl]benzamide (dihydrochloride salt). […].
Tumor volumes were measured with calipers and determined according to the formula length×diameter^2×π/6. In addition to presenting changed of tumor volumes over the course of treatments, antitumor activity is expressed as T/C % ((mean change of tumor volume of treated animals/mean change of tumor volume of control animals)×100). Regressions (%) were calculated according to the formula ((mean tumor volume at end of treatment−mean tumor volume at start of treatment)/mean tumor volume at start of treatment)×100. Body weights and tumor volumes were recorded twice a week.
Statistics: Were applicable, data is presented as mean±SEM. For all tests, the level of significance was set at p<0.05. For tumor volumes, comparisons between treatment groups and vehicle control group were done using one-way ANOVA followed by Dunnett's test. Pairwise comparisons were done using a one way ANOVA followed by Tukey's test. The level of significance of body weight change within a group between the start and the end of the treatment period was determined using a paired t-test. Comparisons of delta body weighs between treatment and vehicle control groups were performed by a one-way ANOVA followed by a post hoc Dunnett's test. Calculations were performed using GraphPad Prism 4 for Windows (GraphPad Software Inc.). In addition, an approximation of drug interactions was made using the method described by Clarke (Clarke R., Breast Cancer Research and Treatment 46, 255-278 (1997)). This was applied to delta tumor volumes and can estimate interactions from limited data. In short, the combination data was assessed using the method presented by Clarke which can estimate interactions from limited data. For compound A, B or the combination AB (with control group C), antagonism is predicted when the calculation AB/C>A/C×B/C, additive effect: AB/C=A/C×B/C, synergistic interactions are predicted to occur when AB/C<A/C×B/C.
The body weight increase was statistically significant in all groups excepted the combination group (p<0.05, paired t-test).

[2] = system: HCC827GR5 subcutaneous xenografts; test: Follow-up of HCC827GR5 xenografts after treatment discontinuation or extension; assay type: in vivo, mice; conditions: 4 animals
Method: FIG. 5: Graphic representation of the change of tumor volumes over time after treatment discontinuation in mice (in vivo) as described in more detail in the Examples. […] Treatments started 11 days post tumor cells implantation and lasted 13 consecutive days. […] Four animals were kept under observation, without any treatment (left panel) while the two other groups of 4 animals each were kept under daily treatment as before (right panel). Tumor volumes and body weights were recorded only once a week. Horizontal lines are set at 100 and 500 mm^3 tumor volumes.
[…]. Treatments started 11 days post tumor cells implantation and lasted 13 consecutive days. […] Four animals were kept under observation, without any treatment (left panel) while the two other groups of 4 animals each were kept under daily treatment as before (right panel). Tumor volumes and body weights were recorded only once a week. Horizontal lines are set at 100 and 500 mm^3 tumor volumes, respectively. […] […]. The tumors in the animals that received the combination therapy continued to regress from a mean volume of 33+/−1.3 to 26.3+/−2.8 mm^3 (representing a mean of 89.2% regression from the initial volume).

[3] = system: c-MET-driven or HGF/c-MET-driven xenograft; test: c-MET-driven or HGF/c-MET-driven xenograft mouse tumor models; assay type: in vivo; conditions: oral dosing
From the text: […]. […] […]. […] Importantly, cell lines with simultaneous HGF and c-MET expression are also relatively resistant to EGFR inhibitors compared to cell lines with similar c-MET level that lack HGF expression.

Compound	effect on proliferation of the HCC827 cells (HCC827 cells)	effect of single agent on proliferation of HCC827 GR cells (HCC827 GR cells)	antitumor effect as single agent [1]	regressions ([1]; first experiment (FIG. 3)) [%]	Delta tumor volume ([1]; first experiment, Table 1)	regressions ([1]; second experiment (FIG. 4)) [%]	Delta tumor volume ([1]; second experiment, Table 2)	tumor volume, mean+/−SEM, after treatment discontinuation ([2]; no treatment after day 24 (FIG. 5 left graph))	tumor volume, mean, under extended daily treatment ([2]; treatment continued after day 24 (FIG. 5 right panel))	in vivo activity in blocking c-MET phosphorylation and tumor growth [3]	T/C ([1]; first experiment (FIG. 3)) [%]	T/C ([1]; second experiment (FIG. 4)) [%]
CNC(=O)c1ccc(-c2cnc3ncc(Cc4ccc5ncccc5c4)n3n2)cc1F [2-fluoro-N-methyl-4-[(7-quinolin-6-yl-methyl)-imidazo[1,2-b]triazin-2-yl]benzamide]	did not show any substantial effect	modest	slight statistically significant tumor regressions	22.9	−60.2	21.4	−55.7	516+/−112 mm^3	400+/−80 mm^3	significant in vivo activity		
COc1cc2ncnc(Nc3ccc(F)c(Cl)c3)c2cc1OCCCN1CCOCC1 [gefitinib, N-(3-hloro-4-fluorophenyl)-7-methoxy-6-[3-(morpholin-4-yl)propoxy]quinazolin-4-amine, reference compound]			statistically significant antitumor effects, but never regressions		173.1		261				32.5	49.4
